Laboratory results as given in US7727965B2, “C-glycosylisoflavones having alkylaminoalkoxyl substituent, preparation and use of the same” (Hainan Yangpu New & Special Medicine Co., Ltd., priority 2003, dated 2010).

Key:
[1] = tested on: Kunming mice; experiment: Normal pressure hypoxia-resistance test in mice; assay type: in vivo; settings: 60 mg/Kg intraperitoneal, 0.5 hours before sealing in 250 ml bottles, examples tested as hydrochloride salts
Procedure: This test was carried out by a common method familiar to those skilled in the art. 32 Kunming mice (16 males vs. 16 females, body weights ranging from 18 to 20 g) were randomly divided into a control group and a administration group (each group having 16 animals), wherein the dosage was 60 mg/Kg mouse and 0.2 ml for each animal. After 0.5 hours of the intraperitoneal injection of test solutions, the mice were placed and sealed in 250 ml wide-mouthed bottles with ground stoppers. The times of death were recorded. Statistical analysis was conducted separately with respect to the blank control group and puerarin group, and P values were calculated.

[2] = cited from earlier work
[3] = cited from earlier work; remark: listed apart in the source
[4] = 568 patients administered with puerarin; cited from earlier work

SMILES	Time to death [1] [min]	further results
CCN(CC)CCCOc1ccc(-c2coc3c([C@@H]4O[C@H](CO)[C@@H](O)[C@H](O)[C@H]4O)c(O)ccc3c2=O)cc1 [Example 6, 4′-(3-N-diethylaminopropoxy)-7-hydroxy-8-β-D-(1-deoxyglucosyl)-isoflavone]	73.5 ± 9	
CCN(CC)CCCCOc1ccc(-c2coc3c([C@@H]4O[C@H](CO)[C@@H](O)[C@H](O)[C@H]4O)c(O)ccc3c2=O)cc1 [Example 14, 4′-(4-N-diethylaminobutoxy)-7-hydroxy-8-β-D-(1-deoxyglucosyl)isoflavone]	79.1 ± 8	
O=c1c(-c2ccc(O)cc2)coc2c([C@@H]3O[C@H](CO)[C@@H](O)[C@H](O)[C@H]3O)c(O)ccc12 [puerarin, 4′,7-dihydroxy-8-β-D-C-glycosylisoflavone]	48.3 ± 5	solubility of puerarin in 4.3% PVP aqueous solution ([2]; 4.3% PVP aqueous solution): 1.332 g/100 ml; stability in an aqueous solution ([2]; relatively high pH value): poor stability; solubility of puerarin in water ([2]; water): 0.462 g/100 ml; oral bioavailability [3]: about 30%; total incidence rate of febrile [4]: 5.81%
CN1CCN(CCCCOc2ccc(-c3coc4c([C@@H]5O[C@H](CO)[C@@H](O)[C@H](O)[C@H]5O)c(O)ccc4c3=O)cc2)CC1 [Example 17, 4′-(4-N-methylpiperazinylbutoxy)-7-hydroxy-8-β-D-(1-deoxyglucosyl)-isoflavone]	59.8 ± 7	
CCN1CCN(CCCCOc2ccc(-c3coc4c([C@@H]5O[C@H](CO)[C@@H](O)[C@H](O)[C@H]5O)c(O)ccc4c3=O)cc2)CC1 [Example 18, 4′-(4-N-ethylpiperazinylbutoxy)-7-hydroxy-8-β-D-(1-deoxyglucosyl)-isoflavone]	75.9 ± 6	
CCCN(CCC)CCCOc1ccc(-c2coc3c([C@@H]4O[C@H](CO)[C@@H](O)[C@H](O)[C@H]4O)c(O)ccc3c2=O)cc1 [Example 7, 4′-[3-N-di(n-propyl)aminopropoxy]-7-hydroxy-8-β-D-(1-deoxyglucosyl)-isoflavone]	69.8 ± 5	
O=c1c(-c2ccc(OCCCN3CCOCC3)cc2)coc2c([C@@H]3O[C@H](CO)[C@@H](O)[C@H](O)[C@H]3O)c(O)ccc12 [Example 4, 4′-(3-N-morpholinylpropoxy)-7-hydroxy-8-β-D-(1-deoxyglucosyl)isoflavone]	75.3 ± 7	
